Molecular target: p110α (Homo sapiens (Human), UniProt P42336)
Assay: PI3K lipid kinase activity on lipid micelles (ADP-Glo), p110α
Format: biochemical
Conditions: 10 μM ATP
Experimental: a) Some compounds of formula (I) described herein were assayed in vitro for their ability to inhibit the lipid kinase activity of PI3Ks, by using a non-radioactive method.
In details, His and GST-tagged recombinant proteins (purchased from JenaBioscience—Germany; PI3Kα #PR-335, PI3Kβ #PR-344, PI3Kγ #PR-343, PI3Kδ #PR-345) for each isoform PI3Kα, β, γ and δ, were incubated with 10 μM of ATP, with lipid micells containg the appropriate substrate phosphatidylinositol and the phosphatidilserine, and different concentrations of the formula (I) compounds.
After 30 minutes of incubation at room temperature, the amount of ADP produced from ATP following the activation of kinase was measured with a luminescent kinase assay, ADP-Glo™ Kinase Assay (purchased from Promega—USA #V9101).
The luminescent signal positively correlates with the formed ADP and, therefore, with the kinase activity.
Inhibition of PI3K lipid kinase activity is achieved when the amount of ADP—that is correlated with the PI3K activity—in the presence of the assayed compound of formula (I) is lower than the amount detected in the control samples.
For each assayed formula (I) compound, a specific IC50 for each class I PI3K isoform was measured.
The IC50 of a formula (I) compound is the concentration of the compound able to inhibit by 50% the kinase activity of each PI3K isoform.
The IC50 was determined by constructing a dose-response curve and examining the inhibitory effect of different concentrations of the assayed formula (I) compounds on the ADP production.
To evaluate the ability of each compound of formula (I) to inhibit the lipid kinase activity of each PI3K isoform, PI3Kα, β, γ and δ recombinant proteins (30 ng for each assay) were incubated for about 30 minutes with different concentrations of compounds.
Lipid micelles were formed by sonicating a mixture of 1 mg of phosphatidylinositol and 1 mg of phosphatidylserine. Lipid micelles were use as substrate for the PI3K lipid kinase activity. The reaction was started by adding 10 μM of ATP and 10 μM of micelles to each reaction.
After 30 minutes of incubation at room temperature, the reaction was stopped and the amount of ADP produced was measured by using the ADP-glo assay (see above).

Chain of p110α (P42336 whole entry): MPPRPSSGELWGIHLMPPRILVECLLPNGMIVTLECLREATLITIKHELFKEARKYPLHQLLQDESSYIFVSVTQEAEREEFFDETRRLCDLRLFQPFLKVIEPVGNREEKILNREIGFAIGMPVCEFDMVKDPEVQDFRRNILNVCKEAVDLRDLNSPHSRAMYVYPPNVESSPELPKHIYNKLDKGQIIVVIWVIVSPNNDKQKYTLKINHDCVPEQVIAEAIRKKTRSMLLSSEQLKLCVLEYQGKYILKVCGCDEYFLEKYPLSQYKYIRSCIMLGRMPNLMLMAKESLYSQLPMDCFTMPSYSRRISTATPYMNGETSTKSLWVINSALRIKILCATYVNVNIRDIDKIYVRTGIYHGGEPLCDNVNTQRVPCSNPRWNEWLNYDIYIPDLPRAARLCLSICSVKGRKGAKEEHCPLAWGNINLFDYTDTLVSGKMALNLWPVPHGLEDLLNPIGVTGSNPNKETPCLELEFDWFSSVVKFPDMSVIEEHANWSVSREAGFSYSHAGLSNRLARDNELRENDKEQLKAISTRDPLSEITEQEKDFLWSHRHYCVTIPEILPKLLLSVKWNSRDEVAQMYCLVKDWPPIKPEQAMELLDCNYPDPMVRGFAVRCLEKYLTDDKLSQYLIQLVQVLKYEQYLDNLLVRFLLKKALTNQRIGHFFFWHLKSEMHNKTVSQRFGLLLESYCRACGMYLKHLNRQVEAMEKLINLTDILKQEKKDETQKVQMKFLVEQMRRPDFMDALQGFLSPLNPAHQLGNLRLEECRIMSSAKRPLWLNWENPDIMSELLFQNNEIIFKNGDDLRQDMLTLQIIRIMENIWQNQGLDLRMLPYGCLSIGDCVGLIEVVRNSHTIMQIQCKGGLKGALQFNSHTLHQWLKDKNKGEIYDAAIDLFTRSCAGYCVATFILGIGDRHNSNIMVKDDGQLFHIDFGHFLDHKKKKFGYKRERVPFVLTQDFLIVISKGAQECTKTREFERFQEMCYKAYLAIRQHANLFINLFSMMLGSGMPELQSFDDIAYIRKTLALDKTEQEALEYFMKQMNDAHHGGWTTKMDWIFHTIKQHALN
Chain of p110α (P27986 whole entry partner): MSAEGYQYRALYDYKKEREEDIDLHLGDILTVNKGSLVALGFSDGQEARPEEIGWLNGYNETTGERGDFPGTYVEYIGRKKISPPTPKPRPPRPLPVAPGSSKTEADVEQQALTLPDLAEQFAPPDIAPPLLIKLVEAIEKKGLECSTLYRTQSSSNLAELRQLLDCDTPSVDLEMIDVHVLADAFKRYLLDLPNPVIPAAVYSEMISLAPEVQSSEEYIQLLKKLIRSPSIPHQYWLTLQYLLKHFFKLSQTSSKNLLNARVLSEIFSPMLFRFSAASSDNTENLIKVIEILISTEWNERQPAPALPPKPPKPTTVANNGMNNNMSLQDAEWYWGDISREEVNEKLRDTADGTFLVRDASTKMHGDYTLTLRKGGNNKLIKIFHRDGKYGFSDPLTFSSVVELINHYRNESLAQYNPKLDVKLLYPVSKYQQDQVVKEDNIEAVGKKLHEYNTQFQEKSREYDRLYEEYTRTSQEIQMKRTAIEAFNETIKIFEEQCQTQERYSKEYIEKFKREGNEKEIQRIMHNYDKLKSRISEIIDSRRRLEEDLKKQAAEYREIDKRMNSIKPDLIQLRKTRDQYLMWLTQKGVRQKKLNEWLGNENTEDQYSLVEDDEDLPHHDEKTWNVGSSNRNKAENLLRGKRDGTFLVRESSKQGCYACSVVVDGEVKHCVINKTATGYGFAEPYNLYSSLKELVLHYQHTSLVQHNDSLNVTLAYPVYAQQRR

Row | Compound | IC50 [µM]
1 | O=C(O)CCCn1cc(-c2cccc3c(=O)cc(N4CCOCC4)[nH]c23)nn1 [CL55a, 4-(4-(2-morpholino-4-oxo-1,4-dihydroquinolin-8-yl)-1H-1,2,3-triazol-1-yl)butanoic acid] | 0.1
2 | N#CCc1ccc(-n2cc(-c3cccc4c(=O)cc(N5CCOCC5)[nH]c34)nn2)cc1 [CL12, 2-(4-(4-(2-morpholino-4-oxo-1,4-dihydroquinolin-8-yl)-1H-1,2,3-triazol-1-yl)phenyl) acetonitrile] | 0.1
3 | O=C(O)c1cccc(Cn2cc(-c3cccc4c(=O)cc(N5CCOCC5)[nH]c34)nn2)c1 [CL27e, 3-((4-(2-morpholino-4-oxo-1,4-dihydroquinolin-8-yl)-1H-1,2,3-triazol-1-yl)methyl)benzoic acid] | 0.02
4 | O=C(O)c1ccc(-n2cc(-c3cccc4c(=O)cc(N5CCOCC5)[nH]c34)nn2)cc1 [CL29a, 4-(4-(2-morpholino-4-oxo-1,4-dihydroquinolin-8-yl)-1H-1,2,3-triazol-1-yl)benzoic acid] | 0.32
5 | O=C(O)CCCCn1cc(-c2cccc3c(=O)cc(N4CCOCC4)[nH]c23)nn1 [CL64a, 5-(4-(2-morpholino-4-oxo-1,4-dihydroquinolin-8-yl)-1H-1,2,3-triazol-1-yl)pentanoic acid] | 0.1
6 | O=c1cc(N2CCOCC2)[nH]c2c(-c3cn(-c4ccccc4)nn3)cccc12 [CL1, 2-morpholino-8-(1-phenyl-1h-1,2,3-triazol-4-yl)quinolin-4(1H)-one] | 0.73
7 | O=C(NCc1ccccc1)c1cccc(Cn2cc(-c3cccc4c(=O)cc(N5CCOCC5)[nH]c34)nn2)c1 [CL129a, N-benzyl-3-((4-(2-morpholino-4-oxo-1,4-dihydroquinolin-8-yl)-1H-1,2,3-triazol-1-yl)methyl) benzamide] | 0.14
8 | O=c1cc(N2CCOCC2)[nH]c2c(-c3cn(-c4ccccc4O)nn3)cccc12 [TP714, 8-(1-(2-hydroxyphenyl)-1H-1,2,3-triazol-4-yl)-2-morpholinoquinolin-4(1H)-one] | 0.26
9 | Cc1cc(F)ccc1Oc1cccc2c(=O)cc(N3CCOCC3)[nH]c12 [TGX155, reference compound] | > 20
10 | O=C(O)c1cccc(-n2cc(-c3cccc4c(=O)cc(N5CCOCC5)[nH]c34)nn2)c1 [CL55b, 3-(4-(2-morpholino-4-oxo-1,4-dihydroquinolin-8-yl)-1H-1,2,3-triazol-1-yl)benzoic acid] | 0.1
11 | O=c1cc(N2CCOCC2)[nH]c2c(-c3cn(Cc4ccccc4)nn3)cccc12 [CL5, 8-(1-benzyl-1H-1,2,3-triazol-4-yl)-2-morpholinoquinolin-4(1H)-one] | 0.26

Source: patent US8841288B2, “Quinolin-4 (1H)-one derivatives as inhibitors of phosphatidylinositol 3-kinases” (Universtà Degli Studi di Torino, priority 2010, dated 2014)
